Calls of active or inactive are those of the source. No rule for the calls is given here.
biological target: 5-hydroxytryptamine receptor 5A (Homo sapiens) (UniProt P47898); assay: HTR5A activation, luminescence read-out – cell-based, dose response, counter-screen for OPRM1-OPRD1 heterodimer activator project, late-stage follow-up (AID 651688); settings: HTR5A counterscreen cells, luminescence (beta-arrestin/complementation)
Sequence (P47898 whole entry, looked up): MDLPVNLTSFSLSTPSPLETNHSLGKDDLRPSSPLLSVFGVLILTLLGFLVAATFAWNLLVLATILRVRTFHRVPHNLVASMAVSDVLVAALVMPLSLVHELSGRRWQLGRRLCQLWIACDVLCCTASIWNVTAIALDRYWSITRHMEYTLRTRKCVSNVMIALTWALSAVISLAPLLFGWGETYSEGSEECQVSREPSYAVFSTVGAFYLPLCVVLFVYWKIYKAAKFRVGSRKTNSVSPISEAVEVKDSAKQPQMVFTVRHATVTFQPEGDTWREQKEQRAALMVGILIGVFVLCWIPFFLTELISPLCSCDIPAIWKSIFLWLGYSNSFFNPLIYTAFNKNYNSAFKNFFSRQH

| Compound | EC50 |
| --- | --- |
| CCOC(=O)C1(CCc2ccccc2)CCN(Cc2cc(C)cc(C)c2)CC1 | > 40 µM (inactive) |
| OCC1(CCc2ccccc2)CCN(Cc2cc(F)ccc2-n2cccn2)CC1 | > 40 µM (inactive) |
| CCOC(=O)C1(CCc2ccccc2)CCN(Cc2ccc(NC(C)=O)cc2)CC1 | > 40 µM (inactive) |
| CCOC(=O)C1(CCc2ccccc2)CCN(Cc2ccccc2C)CC1 | > 40 µM (inactive) |
| CCOC(=O)C1(CCOc2ccccc2)CCN(Cc2ccc(O)c(OC)c2)CC1 | > 40 µM (inactive) |
| CCOC(=O)C1(CCc2ccccc2)CCN(Cc2ccc(OC(C)C)c(C#N)c2)CC1 | > 40 µM (inactive) |
| CCOC(=O)C1(Cc2ccccc2)CCN(Cc2cccn2-c2nccs2)CC1 | > 40 µM (inactive) |
| CCOC(=O)C1(CCCc2ccccc2)CCN(Cc2cnn(C)c2)CC1 | > 40 µM (inactive) |
| CCOC(=O)C1(CCOc2ccccc2)CCN(Cc2cccn2-c2cccnc2)CC1 | > 40 µM (inactive) |
| CCOC(=O)C1(CC2CCCCO2)CCN(Cc2c(C)cc(C)cc2-n2cccn2)CC1 (stereo unspecified) | > 40 µM (inactive) |
| CCOC(=O)C1(Cc2ccccc2)CCN(Cc2cccn2-c2cccnc2)CC1 | > 40 µM (inactive) |
